Source: ChEMBL document CHEMBL5214932, “A closer look at N2,6-substituted 1,3,5-triazine-2,4-diamines: Advances in synthesis and biological activities” (Eur J Med Chem, 2022)

Columns and labels:
MDA-MB-231 = assay: Antiproliferative activity against human MDA-MB-231 cells assessed as cell growth inhibition measured after 72 hrs by MTT assay; assay type: functional, cell-based; details: MDA-MB-231, 72 h
DU-145 = assay: Antiproliferative activity against human DU-145 cells assessed as cell growth inhibition measured after 72 hrs by MTT assay; assay type: functional, cell-based; details: DU-145, 72 h
SK-BR-3 = assay: Antiproliferative activity against human SK-BR-3 cells assessed as cell growth inhibition measured after 72 hrs by MTT assay; assay type: functional, cell-based; details: SK-BR-3, 72 h
MCF7 = assay: Antiproliferative activity against human MCF7 cells assessed as cell growth inhibition measured after 72 hrs by MTT assay; assay type: functional, cell-based; details: MCF7, 72 h
MCF-10A = assay: Antiproliferative activity against human MCF-10A cells assessed as cell growth inhibition measured after 72 hrs by MTT assay; assay type: functional, cell-based
[1] = Cytotoxicity against human MT2 cells assessed as cell growth inhibition by MTT assay; assay type: toxicity, cell-based
[2] = test system: Human immunodeficiency virus 1; assay: Antiviral activity against wild type HIV1 IIIB assessed as viral growth inhibition measured after 5 days by MTT assay; assay type: functional, organism-based; details: Human immunodeficiency virus 1, IIIB, 120 h

SMILES: CN(C)c1ccc(-c2nc(N)nc(Nc3ccccc3F)n2)cc1
- IC50 (MDA-MB-231): 60 nM
- IC50 (DU-145): 670 nM
- IC50 (SK-BR-3): 290 nM
- IC50 (MCF7): > 20000 nM
- IC50 (MCF-10A): > 25000 nM

SMILES: N#C/C=C/c1cccc(Oc2cc(Nc3nc(N)nc(C4CC4)n3)ccc2C#N)c1
- IC50 [1]: 1700 nM
- IC50 [2]: 43 nM
